Reference: patent US10874743B2, “IRAK degraders and uses thereof” (Kymera Therapeutics, Inc., priority 2017, dated 2020)

Target: T1, IRAK4 (Homo sapiens, UniProt Q9NWZ3)
T1 sequence (Q9NWZ3 1-460): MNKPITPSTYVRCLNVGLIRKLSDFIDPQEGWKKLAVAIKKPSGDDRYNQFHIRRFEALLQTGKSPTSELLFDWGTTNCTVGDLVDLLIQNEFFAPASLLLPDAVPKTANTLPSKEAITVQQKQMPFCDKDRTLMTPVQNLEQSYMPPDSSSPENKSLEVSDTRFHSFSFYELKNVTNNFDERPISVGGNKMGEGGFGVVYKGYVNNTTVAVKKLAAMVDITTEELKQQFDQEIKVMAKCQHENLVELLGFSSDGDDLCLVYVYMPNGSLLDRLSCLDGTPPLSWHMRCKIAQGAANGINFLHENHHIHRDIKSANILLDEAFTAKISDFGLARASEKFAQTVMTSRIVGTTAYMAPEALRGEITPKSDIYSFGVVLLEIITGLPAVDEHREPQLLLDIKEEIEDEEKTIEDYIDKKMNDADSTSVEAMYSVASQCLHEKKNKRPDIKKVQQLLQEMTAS
Test: OCI-LY-10 degradation assay (western blot, % IRAK4 degraded after 4 hours)
Type: cell-based
Set-up: endogenous in cells; host or cells: OCI-LY10
Settings: OCI-LY10 cells; for OCI-LY10 % IRAK4 Degradation: IRAK4 degraded after 4 hours, western blot; for OCI-LY10 % IRAK4 Degradation (0.01 uM) / OCI-LY10 % IRAK4 Degradation (0.1 uM) / OCI-LY10 % IRAK4 Degradation (1 uM): 4 hours; for OCI-LY10 % IRAK4 Degradation (0.01 uM): 0.01 uM compound; for OCI-LY10 % IRAK4 Degradation (0.1 uM): 0.1 uM compound; for OCI-LY10 % IRAK4 Degradation (1 uM): 1 uM compound
Experimental: Compounds were reconstituted in DMSO to make stock solutions at concentration of 60 mM. THP-1 and OCI-LY10 cells were maintained in RPMI-1640 medium containing 10% FBS, 0.5 μM 2-ME or 20% FBS, 55 μM 2-ME, and 1% L-Glutamine respectively.
Cells were seeded into 6-well plates with 5e6 cells per well. 200 μL of diluted compounds were added to cells to the final concentration of 0.003-10 μM. After 4 or 24 hour-incubation at 37° C., cells were collected into 2 mL Eppendorf tubes and centrifuged at 1,000 rpm for 5 min. The cell pellets were washed with 1×DPBS once and resuspended in 60 μL lysis buffer. The cells were lysed on ice for 10 min, then centrifuged at 14,000 rpm for 10 min at 4° C. and the supernatants were collected for western blots. For THP-1 cells, the lysis buffer contained 40 mM pH 7.4 HEPES, 140 mM NaCl, 2.5 mM EDTA, 1% NP-40, 0.1% SDS, and protease inhibitor cocktail (Roche, Cat. No. 05892791001). For OCI-LY10 cells, RIPAbuffer (Thermo Fisher, 89900) with Halt Protease and Phosphatase Inhibitor Cocktail (Thermo Fisher, 78446) was applied.
The protein concentration of cell lysates was quantified with Pierce™ BCA Protein Assay Kit (Pierce, 23227). Albumin standards at different concentrations were prepared, involving 2,000 ug/mL, 1,500 ug/mL, 1,000 ug/mL, 750 ug/mL, 500 ug/mL, 250 ug/mL, 125 ug/mL, and 25 ug/mL. BCA working reagents were prepared by mixing BCA reagent A with reagent B in 50:1 ratio. 200 μL of the BCA working reagents were added to 25 μL of BCA standard or cell lysates in microplate, and mixed thoroughly on a plate shaker for 30 seconds. After incubation at 37° C. for 30 min, the absorbance of samples at 562 nm were measured with EnVision Plate Reader.
Protein lysates were prepared in NuPAGE™ LDS sample buffer and NuPAGE™ sample reducing agent, and incubated at 95° C. for 5 min. For western blots, 20-25 μg of total proteins were resolved in 4-12% Bis-Tris gels (Introgen, WG1403A) or 10% Bis-Tris Midi gels (Invitrogen, WG1202BOX) running with 1×MOPS SDS running buffer (Invitrogen, NP0001) or 1×MES SDS running buffer (Invitrogen, NP0002). The proteins were transferred to low fluorescence PVDF membranes using the Trans-Blot Turbo Transfer System. Membranes were then blocked in Odyssey blocking buffer at RT for 1 h followed by primary incubation at 4° C. overnight. The primary antibodies were IRAK1 rabbit monoclonal antibody (CST, #4504S, 1:500), IRAK3 rabbit polyclonal antibody (CST, #4369, 1:500), IRAK4 rabbit polyclonal antibody (CST, #4363S, 1:1,000), MyD88 rabbit monoclonal antibody (Abcam, Ab133739, 1:2,000), j3-actin mouse monoclonal antibody (Sigma, A5441, 10,000), and Gapdh mouse monoclonal antibody (Millipore, MAB374, 1:5,000). Membranes were washed three times with 1×TBST, and then incubated with IR Dye 800 CW Goat anti-rabbit (Licor, #926-32211) and IR Dye 700 CW Goat anti-mouse (Licor, #926-68070) secondary antibodies in 1:10,000 dilution at RT for 1 h. The western blot images were obtained using Odyssey Imaging System.
OCI-LY-10 results at 4 hours. The letter codes indicate the percentage of IRAK4 degraded after 4 hours: A (>50% degradation), B (>20-50% degradation) and C (<20% degradation)
OCI-LY-10 results at 4 hours. The letter codes for % IRAK4 degradation indicate the percentage of IRAK4 degraded after 4 hours across three different concentrations: A (>50% degradation), B (>20-50% degradation) and C (<20% degradation).

In the case of `N#Cc1cnc2c(cnn2-c2cc(NC3CC3)c(C(=O)N[C@H]3C[C@H](COCCOCCOCCOCCOCCNc4cccc5c4C(=O)N(C4CCC(=O)NC4=O)C5=O)C3)cn2)c1` (stereo partly drawn) [I-36], the “OCI-LY10 % IRAK4 Degradation” value is reported as “C (<20% degradation)”.

`O=C1CCC(N2C(=O)c3cccc(CCCOCCOCCNC(=O)c4ccc(-n5cc(NC(=O)c6coc(-c7ccnc(NCC8CC8)c7)n6)c(C(F)F)n5)cc4)c3C2=O)C(=O)N1` (stereo not drawn) [I-244] was tested, and the “OCI-LY10 % IRAK4 Degradation (0.01 uM)” value was “C (<20% degradation)”, the “OCI-LY10 % IRAK4 Degradation (0.1 uM)” value was “B (>20-50% degradation)” and the “OCI-LY10 % IRAK4 Degradation (1 uM)” value was “B (>20-50% degradation)”.

With `NC(=O)c1nn(Cc2cn(CCOCCOCCNc3cccc4c3C(=O)N(C3CCC(=O)NC3=O)C4=O)nn2)cc1NC(=O)c1coc(-c2ccnc(NCC3CC3)c2)n1` (stereo not drawn) [I-304, N-[3-carbamoyl-1-[[1-[2-[2-[2-[[2-(2,6-dioxo-3-piperidyl)-1,3-dioxo-isoindolin-4-yl]amino]ethoxy]ethoxy]ethyl]triazol-4-yl]methyl]pyrazol-4-yl]-2-[2-(cyclopropylmethylamino)-4-pyridyl]oxazole-4-carboxamide] the “OCI-LY10 % IRAK4 Degradation (0.01 uM)” value was “C (<20% degradation)”, the “OCI-LY10 % IRAK4 Degradation (0.1 uM)” value was “C (<20% degradation)” and the “OCI-LY10 % IRAK4 Degradation (1 uM)” value was “C (<20% degradation)”.

`N#Cc1cnc2c(cnn2-c2cc(NC3CC3)c(C(=O)N[C@H]3CC[C@H](C(=O)NCCOCCOCCOCCOCCNc4cccc5c4C(=O)N(C4CCC(=O)NC4=O)C5=O)CC3)cn2)c1` (stereo partly drawn) [I-22, 6-(5-cyano-1H-pyrazolo[3,4-b]pyridin-1-yl)-4-(cyclopropylamino)-N-((1r,4r)-4-((14-((2-(2,6-dioxopiperidin-3-yl)-1,3-dioxoisoindolin-4-yl)amino)-3,6,9,12-tetraoxatetradecyl)carbamoyl)cyclohexyl)nicotinamide] was tested, and the “OCI-LY10 % IRAK4 Degradation” value was “C (<20% degradation)”.

For `NCc1nn(-c2ccc(C(=O)NCCOCCOCCNc3cccc4c3C(=O)N(C3CCC(=O)NC3=O)C4=O)cc2)cc1NC(=O)c1coc(-c2ccnc(NCC(F)(F)F)c2)n1` (stereo not drawn) [I-215], the “OCI-LY10 % IRAK4 Degradation (0.01 uM)” value was “A (>50% degradation)”, the “OCI-LY10 % IRAK4 Degradation (0.1 uM)” value was “A (>50% degradation)” and the “OCI-LY10 % IRAK4 Degradation (1 uM)” value was “A (>50% degradation)”.

In the case of `O=C1CCC(N2C(=O)c3cccc(CCCNCc4ccc(-n5cc(NC(=O)c6coc(-c7ccnc(NCC(F)(F)F)c7)n6)c(C(F)F)n5)cc4)c3C2=O)C(=O)N1` (stereo not drawn) [I-361], the “OCI-LY10 % IRAK4 Degradation (0.01 uM)” value is reported as “C (<20% degradation)”, the “OCI-LY10 % IRAK4 Degradation (0.1 uM)” value is reported as “C (<20% degradation)” and the “OCI-LY10 % IRAK4 Degradation (1 uM)” value is reported as “C (<20% degradation)”.

In the case of `NC(=O)c1nn(-c2cccc(C(=O)NCCOCCOCCOCCOCCNc3cccc4c3C(=O)N(C3CCC(=O)NC3=O)C4=O)c2)cc1NC(=O)c1coc(-c2ccnc(NCC(F)(F)F)c2)n1` (stereo not drawn) [I-136], the “OCI-LY10 % IRAK4 Degradation” value is reported as “B (>20-50% degradation)”.

With `NC(=O)c1nn(CCOCCOCCOCCNc2cccc3c2C(=O)N(C2CCC(=O)NC2=O)C3=O)cc1NC(=O)c1coc(-c2ccnc(NCC3CC3)c2)n1` (stereo not drawn) [I-239] the “OCI-LY10 % IRAK4 Degradation (0.01 uM)” value was “C (<20% degradation)”, the “OCI-LY10 % IRAK4 Degradation (0.1 uM)” value was “C (<20% degradation)” and the “OCI-LY10 % IRAK4 Degradation (1 uM)” value was “C (<20% degradation)”.

For `O=C(COc1cccc2c1C(=O)N(C1CCC(=O)NC1=O)C2=O)NCCCCNC(=O)[C@H]1CC[C@H](NC(=O)c2cnc(Nc3ccc4cnccc4n3)cc2NC2CC2)CC1` (stereo partly drawn) [I-9], the “OCI-LY10 % IRAK4 Degradation” value was “C (<20% degradation)”.

In the case of `CN(CCCc1ccc2c(c1)C(=O)N(C1CCC(=O)NC1=O)C2=O)Cc1ccc(-n2cc(NC(=O)c3coc(-c4ccncc4)n3)c(C(N)=O)n2)cc1` (stereo not drawn) [I-370], the “OCI-LY10 % IRAK4 Degradation (0.01 uM)” value is reported as “C (<20% degradation)”, the “OCI-LY10 % IRAK4 Degradation (0.1 uM)” value is reported as “B (>20-50% degradation)” and the “OCI-LY10 % IRAK4 Degradation (1 uM)” value is reported as “B (>20-50% degradation)”.

With `Cc1ncsc1-c1ccc(CNC(=O)[C@@H]2C[C@@H](O)CN2C(=O)[C@@H](NC(=O)COCCCCCCCCNC(=O)c2ccc(-n3cc(NC(=O)c4coc(-c5ccnc(NCC(F)(F)F)c5)n4)c(C(N)=O)n3)cc2)C(C)(C)C)cc1` [I-125, N-[3-carbamoyl-1-[4-[8-[2-[[(1S)-1-[(2S,4R)-4-hydroxy-2-[[4-(4-methylthiazol-5-yl)phenyl]methylcarbamoyl]pyrrolidine-1-carbonyl]-2,2-dimethyl-propyl]amino]-2-oxo-ethoxy]octylcarbamoyl]phenyl]pyrazol-4-yl]-2-[2-(2,2,2-trifluoroethylamino)-4-pyridyl]oxazole-4-carboxamide] the “OCI-LY10 % IRAK4 Degradation” value was “C (<20% degradation)”.

In the case of `N#Cc1cnc2c(cnn2-c2cc(NC3CC3)c(C(=O)NCC(F)COCCOCCOCCOCCOCCNc3cccc4c3C(=O)N(C3CCC(=O)NC3=O)C4=O)cn2)c1` (stereo not drawn) [I-57], the “OCI-LY10 % IRAK4 Degradation” value is reported as “C (<20% degradation)”.

In the case of `O=C1CCC(N2C(=O)c3ccc(NCCOCCN4CCN(CCOCCNCc5ccc(-n6cc(NC(=O)c7coc(-c8ccnc(NCC9CC9)c8)n7)c(C(F)F)n6)cc5)CC4)cc3C2=O)C(=O)N1` (stereo not drawn) [I-349], the “OCI-LY10 % IRAK4 Degradation (0.01 uM)” value is reported as “C (<20% degradation)”, the “OCI-LY10 % IRAK4 Degradation (0.1 uM)” value is reported as “B (>20-50% degradation)” and the “OCI-LY10 % IRAK4 Degradation (1 uM)” value is reported as “A (>50% degradation)”.

With `NC(=O)c1nn(-c2ccc(CNCCOCCOCCOCCOCC#Cc3cccc4c3C(=O)N(C3CCC(=O)NC3=O)C4=O)cc2)cc1NC(=O)c1coc(-c2ccnc(NCC(F)(F)F)c2)n1` (stereo not drawn) [I-323] the “OCI-LY10 % IRAK4 Degradation (0.01 uM)” value was “B (>20-50% degradation)”, the “OCI-LY10 % IRAK4 Degradation (0.1 uM)” value was “A (>50% degradation)” and the “OCI-LY10 % IRAK4 Degradation (1 uM)” value was “A (>50% degradation)”.

In the case of `Cn1c(=O)n(C2CCC(=O)NC2=O)c2ccc(CCCOCCOCCNCc3ccc(-n4cc(NC(=O)c5coc(-c6ccnc(NCC7CC7)c6)n5)c(C(F)F)n4)cc3)cc21` (stereo not drawn) [I-331], the “OCI-LY10 % IRAK4 Degradation (0.01 uM)” value is reported as “C (<20% degradation)”, the “OCI-LY10 % IRAK4 Degradation (0.1 uM)” value is reported as “B (>20-50% degradation)” and the “OCI-LY10 % IRAK4 Degradation (1 uM)” value is reported as “C (<20% degradation)”.

In the case of `O=C1CCC(N2C(=O)c3cccc(NCCOCCNC(=O)c4ccc(-n5cc(NC(=O)c6coc(-c7ccnc(NCC8CC8)c7)n6)c(C(F)F)n5)cc4)c3C2=O)C(=O)N1` (stereo not drawn) [I-211], the “OCI-LY10 % IRAK4 Degradation (0.01 uM)” value is reported as “B (>20-50% degradation)”, the “OCI-LY10 % IRAK4 Degradation (0.1 uM)” value is reported as “B (>20-50% degradation)” and the “OCI-LY10 % IRAK4 Degradation (1 uM)” value is reported as “B (>20-50% degradation)”.

With `CN(CCCc1ccc2c(c1)C(=O)N(C1CCC(=O)NC1=O)C2=O)Cc1ccc(-n2cc(NC(=O)c3coc(-c4ccnc(NCC(F)(F)F)c4)n3)c(C(F)F)n2)cc1` (stereo not drawn) [I-374] the “OCI-LY10 % IRAK4 Degradation (0.01 uM)” value was “C (<20% degradation)”, the “OCI-LY10 % IRAK4 Degradation (0.1 uM)” value was “B (>20-50% degradation)” and the “OCI-LY10 % IRAK4 Degradation (1 uM)” value was “B (>20-50% degradation)”.
